Reference: ChEMBL document CHEMBL1141073, “E-ring modified steroids as novel potent inhibitors of 17beta-hydroxysteroid dehydrogenase type 1” (J Med Chem, 2005)

Tests used:
Assay type in all cases: cell-based
[1] = biological target: T1, 17-beta-hydroxysteroid dehydrogenase type 1 (Homo sapiens) (UniProt P14061); test: Inhibitory activity at 10 uM against 17-beta-hydroxysteroid dehydrogenase type 1 expressed in T47D human breast cancer cells using 2 nM [3H]estrone
T1 sequence (whole entry): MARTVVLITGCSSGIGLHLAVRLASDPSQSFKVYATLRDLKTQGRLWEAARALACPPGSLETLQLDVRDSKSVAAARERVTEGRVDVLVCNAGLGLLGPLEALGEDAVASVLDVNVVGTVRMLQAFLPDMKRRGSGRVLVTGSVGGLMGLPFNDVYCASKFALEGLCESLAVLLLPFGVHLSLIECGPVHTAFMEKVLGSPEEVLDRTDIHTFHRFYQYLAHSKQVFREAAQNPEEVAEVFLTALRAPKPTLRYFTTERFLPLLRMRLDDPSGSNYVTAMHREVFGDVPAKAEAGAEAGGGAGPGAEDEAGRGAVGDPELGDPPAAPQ

[2] = biological target: T2, 17-beta-hydroxysteroid dehydrogenase type 2 (Homo sapiens) (UniProt P37059); test: Inhibitory activity at 10 uM against 17-beta-hydroxysteroid dehydrogenase type 2 in MDAMB-231 human breast cancer cells using 2 nM [3H]estradiol; settings: Cancer cell lines
T2 sequence (whole entry): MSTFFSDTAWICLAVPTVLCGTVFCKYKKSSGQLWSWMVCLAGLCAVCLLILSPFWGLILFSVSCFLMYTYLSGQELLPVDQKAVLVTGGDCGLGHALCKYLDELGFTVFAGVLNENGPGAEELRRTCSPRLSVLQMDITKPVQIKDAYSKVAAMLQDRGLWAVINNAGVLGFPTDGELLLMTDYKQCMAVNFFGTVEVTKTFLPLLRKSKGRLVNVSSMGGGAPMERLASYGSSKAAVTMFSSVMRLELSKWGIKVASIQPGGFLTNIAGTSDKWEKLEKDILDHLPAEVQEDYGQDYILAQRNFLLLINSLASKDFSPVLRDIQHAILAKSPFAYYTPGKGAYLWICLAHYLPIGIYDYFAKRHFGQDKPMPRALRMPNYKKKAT

[3] = biological target: T3, 17-beta-hydroxysteroid dehydrogenase type 1 (Homo sapiens, UniProt P14061); test: Inhibition of 17-beta-hydroxysteroid dehydrogenase type 1 expressed in T47D human breast cancer cells using 2 nM [3H]estrone
T3 sequence (P14061 whole entry): T1 sequence (whole entry)

inhibition [1] [%] | inhibition [2] [%] | SMILES | IC50 [3] [nM]
75 | 7 | CCOC(=O)C(=O)C1=C(O)[C@@]2(C)CCC3c4ccc(O)cc4CCC3C2C1 (stereo not given in full) | 
32 | 6 | C[C@]12CCC3c4ccc(O)cc4CCC3C1Cc1c2n[nH]c1C(=O)O (stereo not given in full) | 
94 | 1 | C[C@]12CCC3c4ccc(O)cc4CCC3C1Cc1c(CO)n[nH]c12 (stereo not given in full) | 
85 | 12 | CC1(C#N)C[C@H]2C3CCc4cc(O)ccc4[C@H]3CC[C@]2(C)C1=O (single isomer, unassigned) | 
97 | 15 | C[C@]12CCC3c4ccc(O)cc4CCC3C1CC(C=O)=C2O (stereo not given in full) | 110
95 | 44 | C[C@]12CCC3c4ccc(O)cc4CCC3C1Cc1cn(CCC#N)nc12 (stereo not given in full) | 
99 | 3 | C[C@]12CCC3c4ccc(O)cc4CCC3C1Cc1c2n[nH]c1C(=O)NCCc1cccnc1 (stereo not given in full) | 
43 | 32 | Cn1ncc2c1[C@@]1(C)CCC3c4ccc(O)cc4CCC3C1C2 (stereo not given in full) | 
77 | 61 | CC(C)Cn1cc2c(n1)[C@@]1(C)CCC3c4ccc(O)cc4CCC3C1C2 (stereo not given in full) | 
95 | 48 | COCCn1cc2c(n1)[C@@]1(C)CCC3c4ccc(O)cc4CCC3C1C2 (stereo not given in full) | 
70 | 44 | CC(C)Cn1ncc2c1[C@@]1(C)CCC3c4ccc(O)cc4CCC3C1C2 (stereo not given in full) | 
83 | 55 | COCCn1ncc2c1[C@@]1(C)CCC3c4ccc(O)cc4CCC3C1C2 (stereo not given in full) | 
94 | 24 | Cn1cc2c(n1)[C@@]1(C)CCC3c4ccc(O)cc4CCC3C1C2 (stereo not given in full) | 
78 | 1.5 | C[C@]12CCC3c4ccc(O)cc4CCC3C1CC(C(=O)C(F)(F)F)=C2O (stereo not given in full) | 
87 | 4 | C[C@]12CCC3c4ccc(O)cc4CCC3C1Cc1c2n[nH]c1C(=O)NCC1CCCO1 (stereo not given in full) | 
89 | 4 | Cn1cccc1CNC(=O)c1[nH]nc2c1CC1C3CCc4cc(O)ccc4C3CC[C@]21C (stereo not given in full) | 
50 | 1 | CN1CCN(CNC(=O)c2[nH]nc3c2CC2C4CCc5cc(O)ccc5C4CC[C@]32C)CC1 (stereo not given in full) | 
57 | 0 | CC(C)NC(=O)c1[nH]nc2c1CC1C3CCc4cc(O)ccc4C3CC[C@]21C (stereo not given in full) | 
92 | 28 | C[C@]12CCC3c4ccc(O)cc4CCC3C1Cc1c2n[nH]c1C(=O)NCc1cccnc1 (stereo not given in full) | 
79 | 30 | COC(=O)Cn1ncc2c1[C@@]1(C)CCC3c4ccc(O)cc4CCC3C1C2 (stereo not given in full) | 
80 | 61 | Cc1cnc(CNC(=O)c2[nH]nc3c2CC2C4CCc5cc(O)ccc5C4CC[C@]32C)cn1 (stereo not given in full) | 
62 | 14 | CNC(=O)c1[nH]nc2c1CC1C3CCc4cc(O)ccc4C3CC[C@]21C (stereo not given in full) | 
93 | 9 | C[C@]12CCC3c4ccc(O)cc4CCC3C1Cc1c2n[nH]c1C(=O)NCc1ccccn1 (stereo not given in full) | 
95 | 19 | COC(=O)Cn1cc2c(n1)[C@@]1(C)CCC3c4ccc(O)cc4CCC3C1C2 (stereo not given in full) | 
95 | 35 | CC1(C)C[C@H]2C3CCc4cc(O)ccc4[C@H]3CC[C@]2(C)C1=O (single isomer, unassigned) | 
88 | 6 | CCN(C)C(=O)c1[nH]nc2c1CC1C3CCc4cc(O)ccc4C3CC[C@]21C (stereo not given in full) | 
78 | 34 | C[C@]12CCC3c4ccc(O)cc4CCC3C1Cc1cccnc12 (stereo not given in full) | 
75 | 36 | C[C@]12CCC3c4ccc(O)cc4CCC3C1Cc1c2n[nH]c1C(F)(F)F (stereo not given in full) | 
55 | 2 | C[C@]12CC[C@@H]3c4ccc(O)cc4CCC3[C@@H]1CC(=N/O)/C2=N\O (single isomer, unassigned) | 
94 | 7 | CCOC(=O)c1[nH]nc2c1CC1C3CCc4cc(O)ccc4C3CC[C@]21C (stereo not given in full) | 

SMILES | inhibition [1] [%] | inhibition [2] [%] | IC50 [3] [nM]
C[C@]12CC[C@@H]3c4ccc(O)cc4CCC3[C@@H]1CC(C#N)C2=O (single isomer, unassigned) | 77 | 17 | 10000
C[C@]12CCC3c4ccc(O)cc4CCC3C1Cc1c[nH]nc12 (stereo not given in full) | 97 | 32 | 180
C[C@]12CC[C@@H]3c4ccc(O)cc4CCC3[C@@H]1C/C(=N/O)C2=O (single isomer, unassigned) | 95 | 5 | 1100
